Test results reported in patent publication US20240382483A1, “HETEROCYCLIC EGFR INHIBITORS FOR USE IN THE TREATMENT OF CANCER” (Blueprint Medicines Corporation, priority 2021, published 2024).

What was measured:
[1] = test system: EGFR mutant NSCLC (EGFR M+); settings: NSCLC patients; cited from earlier work
[2] = molecular target: T1, intracellular phosphorylation of EGFR in NCI-H1975 cell line that harbors the EGFR L858R T790M mutations (Homo sapiens, UniProt P00533, L858R/T790M); assay: NCI-H1975 pEGFR AlphaLISA assay; type: cell-based; settings: NCI-H1975 cells (EGFR L858R T790M), p-EGFR (Tyr1068), 4-5 hours incubation; read-out: Ext pEGFR H1975 GMean IC50 (nM) Protocol: @Pharmaron AlphaLISA (Num)
T1 construct: NCI-H1975 cell line that harbors the EGFR L858R T790M mutations (ATCC, CRL-5908); host or cells: NCI-H1975
T1 sequence (P00533 25-1210 T790M/L858R): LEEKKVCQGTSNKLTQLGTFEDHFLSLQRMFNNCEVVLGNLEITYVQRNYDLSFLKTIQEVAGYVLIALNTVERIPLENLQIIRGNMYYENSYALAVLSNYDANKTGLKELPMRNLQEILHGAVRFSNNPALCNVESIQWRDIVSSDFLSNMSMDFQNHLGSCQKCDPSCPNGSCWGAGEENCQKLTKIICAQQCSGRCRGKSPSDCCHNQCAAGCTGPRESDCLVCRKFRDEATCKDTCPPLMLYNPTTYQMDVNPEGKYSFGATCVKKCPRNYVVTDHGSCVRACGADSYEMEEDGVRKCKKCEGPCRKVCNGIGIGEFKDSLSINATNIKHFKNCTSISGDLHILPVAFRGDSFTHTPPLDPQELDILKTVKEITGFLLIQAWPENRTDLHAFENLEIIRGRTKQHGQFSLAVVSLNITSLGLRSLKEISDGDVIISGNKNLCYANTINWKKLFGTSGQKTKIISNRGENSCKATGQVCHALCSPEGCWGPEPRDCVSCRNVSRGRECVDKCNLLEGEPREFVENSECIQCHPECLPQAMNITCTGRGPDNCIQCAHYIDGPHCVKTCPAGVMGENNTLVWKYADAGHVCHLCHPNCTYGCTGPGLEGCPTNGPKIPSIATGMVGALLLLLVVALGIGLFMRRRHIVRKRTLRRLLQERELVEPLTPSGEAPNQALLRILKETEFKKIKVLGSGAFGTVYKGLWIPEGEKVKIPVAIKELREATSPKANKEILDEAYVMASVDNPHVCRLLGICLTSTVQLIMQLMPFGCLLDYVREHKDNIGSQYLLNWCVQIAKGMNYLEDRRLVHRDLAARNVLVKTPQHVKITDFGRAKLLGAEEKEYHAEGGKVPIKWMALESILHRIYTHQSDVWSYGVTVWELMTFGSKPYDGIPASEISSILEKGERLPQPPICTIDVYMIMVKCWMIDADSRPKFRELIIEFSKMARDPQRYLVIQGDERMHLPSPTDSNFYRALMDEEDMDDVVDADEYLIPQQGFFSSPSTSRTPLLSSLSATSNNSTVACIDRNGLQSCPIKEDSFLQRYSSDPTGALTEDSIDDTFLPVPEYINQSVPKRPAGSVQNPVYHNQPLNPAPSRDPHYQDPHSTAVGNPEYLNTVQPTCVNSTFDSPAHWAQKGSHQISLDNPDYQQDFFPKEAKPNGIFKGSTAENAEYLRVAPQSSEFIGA
Procedure: On the next day, the test compounds and DMSO control were added into H1975 cell plate followed by incubation at 37C/5% CO2 for 4-5 hours. […] Then 5 μL of a donor bead mix was added to each well followed by overnight incubation at room temperature in dark. On the next day, the plate was read at a compatible plate reader to obtain pEGFR signal. Percent of pEGFR inhibition was plotted against log concentration of compounds to generate IC50 values.

EGFR (L858R T790M C797S) = molecular target: T2, EGFR (L858R T790M C797S) (Homo sapiens, UniProt P00533, C797S/L858R/T790M); assay: Biochemical EGFR inhibition assay (Caliper mobility shift), EGFR LRTMCS; settings: LRTMCS (PH) IC50 (nM) @ 1 mM ATP (Num), EGFR LRTMCS mutant
T2 construct: purchased SignalChem E10-122VG
T2 sequence (P00533 25-1210 T790M/C797S/L858R): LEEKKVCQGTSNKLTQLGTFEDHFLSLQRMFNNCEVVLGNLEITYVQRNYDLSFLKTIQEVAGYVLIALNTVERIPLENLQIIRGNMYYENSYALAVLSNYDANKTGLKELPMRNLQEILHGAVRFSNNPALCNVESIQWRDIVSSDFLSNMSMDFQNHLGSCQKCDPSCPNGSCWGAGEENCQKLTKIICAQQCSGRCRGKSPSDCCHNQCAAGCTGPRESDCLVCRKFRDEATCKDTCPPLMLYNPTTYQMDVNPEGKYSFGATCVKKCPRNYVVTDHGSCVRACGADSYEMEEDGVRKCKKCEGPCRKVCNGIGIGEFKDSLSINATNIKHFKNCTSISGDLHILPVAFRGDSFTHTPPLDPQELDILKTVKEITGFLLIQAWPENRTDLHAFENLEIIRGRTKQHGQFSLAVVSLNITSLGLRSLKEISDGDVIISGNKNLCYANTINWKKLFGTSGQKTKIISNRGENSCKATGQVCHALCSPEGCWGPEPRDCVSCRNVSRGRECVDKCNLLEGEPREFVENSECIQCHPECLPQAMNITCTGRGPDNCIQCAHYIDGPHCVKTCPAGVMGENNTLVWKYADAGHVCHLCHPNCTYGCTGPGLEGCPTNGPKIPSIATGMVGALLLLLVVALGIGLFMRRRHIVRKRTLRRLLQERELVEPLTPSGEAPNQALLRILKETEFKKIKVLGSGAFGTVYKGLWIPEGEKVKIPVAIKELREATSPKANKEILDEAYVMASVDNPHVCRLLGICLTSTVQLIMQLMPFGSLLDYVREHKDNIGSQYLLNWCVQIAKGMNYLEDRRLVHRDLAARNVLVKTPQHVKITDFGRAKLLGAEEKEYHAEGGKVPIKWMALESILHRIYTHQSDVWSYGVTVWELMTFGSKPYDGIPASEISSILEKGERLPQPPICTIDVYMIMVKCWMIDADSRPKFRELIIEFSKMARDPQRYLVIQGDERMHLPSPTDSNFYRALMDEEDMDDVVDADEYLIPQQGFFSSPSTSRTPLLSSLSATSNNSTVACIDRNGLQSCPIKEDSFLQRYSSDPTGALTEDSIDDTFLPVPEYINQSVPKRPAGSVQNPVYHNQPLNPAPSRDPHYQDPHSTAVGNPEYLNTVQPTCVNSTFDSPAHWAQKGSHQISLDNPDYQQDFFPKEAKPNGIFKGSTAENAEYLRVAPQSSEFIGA
Method in brief: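 Apparent IC50s were derived by plotting percent activity against the log of compound concentration. Activity was measured as phosphopeptide electrophoretically separated from substrate, after reactions at room temperature reached 10% to 20% phosphorylation and were halted with 35 mM EDTA.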

IC50 [2] [nM] | IC50 (EGFR (L858R T790M C797S)) [nM] | Compound | time of treatment until resistance [1]
– | – | C=CC(=O)Nc1cc(Nc2nccc(-c3cn(C)c4ccccc34)n2)c(OC)cc1N(C)CCN(C)C [osimertinib] | approximately 10 months
> 50 | < 15 | C[C@H](C#N)c1ncc(N2CC[C@H]2C)c2cnc(Nc3ccnc(N4CC[C@@H](O)[C@@](C)(F)C4)n3)cc12 (single isomer, unassigned) [Example 157, (S)-2-(7-((2-((3S,4R)-3-fluoro-4-hydroxy-3-methylpiperidin-1-yl)pyrimidin-4-yl)amino)-4-((R)-2-methylazetidin-1-yl)-2,6-naphthyridin-1-yl)propanenitrile or (R)-2-(7-((2-((3S,4R)-3-fluoro-4-hydroxy-3-methylpiperidin-1-yl)pyrimidin-4-yl)amino)-4-((R)-2-methylazetidin-1-yl)-2,6-naphthyridin-1-yl)propanenitrile] | –
> 50 | 15 to 20 | CC(=O)NCC1CCN1c1ncc(C(C)C)c2cc(Nc3ccnc(N4CC[C@@H](O)[C@@](C)(F)C4)n3)ncc12 (stereo partly drawn) [Example 70, N-((1-(6-((2-((3S,4R)-3-fluoro-4-hydroxy-3-methylpiperidin-1-yl)pyrimidin-4-yl)amino)-4-isopropyl-2,7-naphthyridin-1-yl)azetidin-2-yl)methyl)acetamide] | –
